Here are results for four molecules from patent publication US9023789B2, “Amylin analogs and pharmaceutical compositions thereof” (Novo Nordisk A/S, priority 2012, dated 2015).

Read-outs that look alike come from different tables or passages of the source. Numbered stars: 1 amine (or outer) side, 2 acyl side, 3 side chain; on linkers, the order of the positions; unused ones are H or OH. Bridge positions count the residues as written; N and C are the ends. Side chains are listed from the residue outwards. Peptide text beside a SMILES is read from it. * marks the point of attachment. C20 diacid = O=C(O)CCCCCCCCCCCCCCCCCCC(=O)*; γGlu = O=C(O)[C@H](CCC(=O)[*:2])N[*:1]; AEEA = NCCOCCOCC(=O)O A value given as a limit tells only on which side of the number the result lay.

Data set [1] in a line: ASSAY (IV) determination of solubility. Type of data set: physicochemical. Summed up:
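Polypeptide stock in water ([…]) was mixed 1:1 with 100 mM buffers: glycylglycine at pH 3.0, 4.0, 5.0 and bistrispropane at pH 6.0, 6.5, 7.0, 7.5, 8.0. After 18 hours at room temperature, samples were centrifuged and polypeptide concentration measured by UPLC.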

Data set [2] deals with T1, rat amylin receptor (rat calcitonin receptor + rat RAMP 3) (Rattus norvegicus, UniProt P32214+Q9JJ73).
T1 construct: expressed in transfected cells; host or cells: BHK tk'ts 13 (transient, FuGENE 6), membranes
T1 sequence (P32214 25-479 isoform P32214-2 limits assumed): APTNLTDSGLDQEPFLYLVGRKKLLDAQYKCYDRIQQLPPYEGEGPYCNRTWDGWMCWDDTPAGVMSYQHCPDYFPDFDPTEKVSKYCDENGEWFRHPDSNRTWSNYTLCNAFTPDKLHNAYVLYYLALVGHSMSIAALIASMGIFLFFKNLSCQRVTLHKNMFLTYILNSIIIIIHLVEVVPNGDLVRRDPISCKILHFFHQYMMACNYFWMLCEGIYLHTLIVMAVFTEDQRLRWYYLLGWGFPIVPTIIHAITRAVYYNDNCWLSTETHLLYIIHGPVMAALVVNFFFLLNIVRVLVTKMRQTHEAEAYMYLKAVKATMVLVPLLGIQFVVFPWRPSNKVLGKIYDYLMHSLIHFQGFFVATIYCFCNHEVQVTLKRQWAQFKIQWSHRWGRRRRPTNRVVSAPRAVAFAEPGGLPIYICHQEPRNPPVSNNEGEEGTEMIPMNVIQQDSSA
T1 sequence (Q9JJ73 23-147 partner): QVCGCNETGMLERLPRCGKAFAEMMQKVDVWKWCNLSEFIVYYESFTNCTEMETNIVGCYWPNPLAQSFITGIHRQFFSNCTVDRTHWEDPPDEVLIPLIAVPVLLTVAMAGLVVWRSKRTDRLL
Briefly: ASSAY (VI) binding to the rat amylin receptor. Particulars: for IC50: binding to rat amylin receptor, read-out: rAmylin-R bind IC50. Summed up: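 Binding to the rat amylin receptor was determined with membrane preparations. The receptor was expressed by transiently transfecting BHK tk′ts 13 cells with rat calcitonin receptor, using FuGENE® 6 (Roche) according to the manufacturer's recommendations. Roughly 48 hours later the cells were harvested and their membranes isolated.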

Data set [3] is described as follows: ASSAY (III) ThT fibrillation assay for physical stability. Type of data set: physicochemical. The gist of the method:
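Formulations with 1 μM ThT, pH adjusted as required, incubated at 37 °C with 960 rpm orbital shaking; fluorescence (ex 444/em 485 nm) read every 20 min. Fibrillation reported as mean ThT fluorescence ± SD of 4–8 replicates at time points; polypeptide concentration measured by reverse-phase HPLC before and after, post-centrifugation.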

Where [4] appears, read: bistrispropane buffer, pH 6.5, read-out: Solubility pH 6.5 Concentration.
[5] abbreviates: bistrispropane buffer, pH 7.5, read-out: Solubility pH 7.5 Concentration.
Where [6] appears, read: bistrispropane buffer, pH 6.0, read-out: Solubility pH 6.0 Concentration.
Where [7] appears, read: bistrispropane buffer, pH 7.0, read-out: Solubility pH 7.0 Concentration.
Where [8] appears, read: bistrispropane buffer, pH 8.0, read-out: Solubility pH 8.0 Concentration.
[9] abbreviates: glycylglycine buffer, pH 3.0, read-out: Solubility pH 3.0 Concentration.
Where [10] appears, read: glycylglycine buffer, pH 4.0, read-out: Solubility pH 4.0 Concentration.
The mark [11] stands for this setting: glycylglycine buffer, pH 5.0, read-out: Solubility pH 5.0 Concentration.
[12] abbreviates: Table 7, rat binding selectivity, rCTR IC50 / rAmylin-R IC50.
The mark [13] stands for this setting: Table 7a (preferred compounds), rat binding selectivity, rCTR IC50 / rAmylin-R IC50.
Setting [14] is: ratio of rCTR bind IC50 to rAmylin-R bind IC50.

The IC50 is the concentration needed to halve the response being measured. As to `CC[C@H](C)[C@H](NC(=O)[C@H](C)NC(=O)CNC(=O)[C@H](Cc1ccccc1)NC(=O)[C@H](CC(N)=O)NC(=O)[C@@H]1CCCN1C(=O)[C@H](CO)NC(=O)[C@H](CO)NC(=O)[C@H](Cc1c[nH]cn1)NC(=O)[C@H](CCCNC(=N)N)NC(=O)[C@H](CC(C)C)NC(=O)[C@H](Cc1ccccc1)NC(=O)[C@H](CC(N)=O)NC(=O)[C@H](C)NC(=O)[C@H](CC(C)C)NC(=O)[C@H](CCCNC(=N)N)NC(=O)[C@H](CCC(N)=O)NC(=O)[C@@H](NC(=O)[C@H](C)NC(=O)[C@@H]1CSSC[C@H](NC(=O)[C@@H](N)CCCCNC(=O)COCCOCCNC(=O)CC[C@H](NC(=O)CCCCCCCCCCCCCCCCCCC(=O)O)C(=O)O)C(=O)N[C@@H](CC(N)=O)C(=O)N[C@@H]([C@@H](C)O)C(=O)N[C@@H](C)C(=O)N[C@@H]([C@@H](C)O)C(=O)N1)[C@@H](C)O)C(=O)N1CCC[C@H]1C(=O)N[C@@H](CO)C(=O)N[C@@H](CO)C(=O)N[C@H](C(=O)N[C@@H](CC(N)=O)C(=O)N[C@H](C(=O)NCC(=O)N[C@@H](CO)C(=O)N[C@@H](CCC(=O)O)C(=O)N[C@H](C(=O)N[C@@H](Cc1ccc(O)cc1)C(N)=O)[C@@H](C)O)C(C)C)[C@@H](C)O` [Example 26] (H-K([AEEA-γGlu-C20 diacid])CNTATCATQRLANFLRHSSPNFGAIPSSTNVGSETY-NH2; disulfide 2-7; N-terminus assumed), the solubility at 18 h in data set [1] (setting [4]), in data set [1] (setting [5]), in data set [1] (setting [6]), in data set [1] (setting [7]), in data set [1] (setting [8]) and in data set [1] (setting [9]) was at least 200 µM each time. For the same molecule, the solubility at 18 h in data set [1] (setting [10]) and in data set [1] (setting [11]) was at least 200 µM throughout. Besides, the half-maximal inhibitory concentration (IC50) in data set [2] (Table 7) came to 0.491 nM. Moreover, the “Ratio rCT/rAmylin binding” value in data set [2] (setting [12]), in data set [2] (setting [13]) and in data set [2] (setting [14]) was 309.2 in each case. The “ThT pH 4.0 lag time (h)” value in data set [3] was found to be 12 h.
`CC[C@H](C)[C@H](NC(=O)[C@H](C)NC(=O)CNC(=O)[C@H](Cc1ccccc1)NC(=O)[C@H](CC(N)=O)NC(=O)[C@@H]1CCCN1C(=O)[C@H](CO)NC(=O)[C@H](CO)NC(=O)[C@H](Cc1c[nH]cn1)NC(=O)[C@H](CCCNC(=N)N)NC(=O)[C@H](CC(C)C)NC(=O)[C@H](Cc1ccccc1)NC(=O)[C@H](CC(N)=O)NC(=O)[C@H](C)NC(=O)[C@H](CC(C)C)NC(=O)[C@H](CCCNC(=N)N)NC(=O)[C@H](CCC(N)=O)NC(=O)[C@@H](NC(=O)[C@H](C)NC(=O)[C@@H]1CSSC[C@H](NC(=O)[C@@H](N)CCCCNC(=O)CC[C@H](NC(=O)CCCCCCCCCCCCCCCCCCC(=O)O)C(=O)O)C(=O)N[C@@H](CC(N)=O)C(=O)N[C@@H]([C@@H](C)O)C(=O)N[C@@H](C)C(=O)N[C@@H]([C@@H](C)O)C(=O)N1)[C@@H](C)O)C(=O)N1CCC[C@H]1C(=O)N[C@@H](CO)C(=O)N[C@@H](CO)C(=O)N[C@H](C(=O)N[C@@H](CC(N)=O)C(=O)N[C@H](C(=O)NCC(=O)N[C@@H](CO)C(=O)N[C@@H](CCC(=O)O)C(=O)N[C@H](C(=O)N[C@@H](Cc1ccc(O)cc1)C(N)=O)[C@@H](C)O)C(C)C)[C@@H](C)O` [Example 27]: the solubility at 18 h in data set [1] (setting [4]), in data set [1] (setting [5]), in data set [1] (setting [6]), in data set [1] (setting [7]), in data set [1] (setting [8]) and in data set [1] (setting [9]) was at least 200 µM throughout. The solubility at 18 h in data set [1] (setting [10]) and in data set [1] (setting [11]) was at least 200 µM in each case. Besides, in data set [2] (Table 7), the 50% inhibitory concentration (IC50) was found to be 0.614 nM. For the same molecule, the “Ratio rCT/rAmylin binding” value in data set [2] (setting [12]), in data set [2] (setting [13]) and in data set [2] (setting [14]) was 146.8 each time. The “ThT pH 4.0 lag time (h)” value in data set [3] was 28 h.
For the molecule `CC[C@H](C)[C@H](NC(=O)[C@H](C)NC(=O)CNC(=O)[C@H](Cc1ccccc1)NC(=O)[C@H](CC(N)=O)NC(=O)[C@@H]1CCCN1C(=O)[C@H](CO)NC(=O)[C@H](CO)NC(=O)[C@H](Cc1c[nH]cn1)NC(=O)[C@H](CCCNC(=N)N)NC(=O)[C@H](CC(C)C)NC(=O)[C@H](Cc1ccccc1)NC(=O)[C@H](CC(N)=O)NC(=O)[C@H](C)NC(=O)[C@H](CC(C)C)NC(=O)[C@H](CCCNC(=N)N)NC(=O)[C@H](CCC(N)=O)NC(=O)[C@@H](NC(=O)[C@H](C)NC(=O)[C@@H]1CSSC[C@H](NC(=O)[C@H](CCCCN)NC(=O)CC[C@H](NC(=O)CCCCCCCCCCCCCCCCCCC(=O)O)C(=O)O)C(=O)N[C@@H](CC(N)=O)C(=O)N[C@@H]([C@@H](C)O)C(=O)N[C@@H](C)C(=O)N[C@@H]([C@@H](C)O)C(=O)N1)[C@@H](C)O)C(=O)N1CCC[C@H]1C(=O)N[C@@H](CO)C(=O)N[C@@H](CO)C(=O)N[C@H](C(=O)N1CCC[C@H]1C(=O)N[C@H](C(=O)NCC(=O)N[C@@H](CO)C(=O)N[C@@H](CCC(=O)O)C(=O)N[C@H](C(=O)N[C@@H](Cc1ccc(O)cc1)C(N)=O)[C@@H](C)O)C(C)C)[C@@H](C)O` [Example 28] ({C20 diacid-γGlu}-KCNTATCATQRLANFLRHSSPNFGAIPSSTPVGSETY-NH2; disulfide 2-7 (inferred)), the solubility at 18 h in data set [1] (setting [4]), in data set [1] (setting [5]), in data set [1] (setting [6]), in data set [1] (setting [7]), in data set [1] (setting [8]) and in data set [1] (setting [9]) was at least 200 µM in each case. Further, the solubility at 18 h in data set [1] (setting [10]) and in data set [1] (setting [11]) was at least 200 µM each time. In addition, the 50% inhibitory concentration (IC50) in data set [2] (Table 7) is 1.22 nM. The “Ratio rCT/rAmylin binding” value in data set [2] (setting [12]), in data set [2] (setting [13]) and in data set [2] (setting [14]) was 44.9 each time. In data set [3], the “ThT pH 4.0 lag time (h)” value worked out at 40 h.
For the molecule `CC[C@H](C)[C@H](NC(=O)[C@H](C)NC(=O)CNC(=O)[C@H](Cc1ccccc1)NC(=O)[C@H](CC(N)=O)NC(=O)[C@@H]1CCCN1C(=O)[C@H](CO)NC(=O)[C@H](CO)NC(=O)[C@H](Cc1c[nH]cn1)NC(=O)[C@H](CCCNC(=N)N)NC(=O)[C@H](CC(C)C)NC(=O)[C@H](Cc1ccccc1)NC(=O)[C@H](Cc1c[nH]cn1)NC(=O)[C@H](C)NC(=O)[C@H](CC(C)C)NC(=O)[C@H](CCCNC(=N)N)NC(=O)[C@H](CCC(N)=O)NC(=O)[C@@H](NC(=O)[C@H](C)NC(=O)[C@@H]1CSSC[C@H](NC(=O)[C@H](CCCCN)NC(=O)CC[C@H](NC(=O)CCCCCCCCCCCCCCCCCCC(=O)O)C(=O)O)C(=O)N[C@@H](CC(N)=O)C(=O)N[C@@H]([C@@H](C)O)C(=O)N[C@@H](C)C(=O)N[C@@H]([C@@H](C)O)C(=O)N1)[C@@H](C)O)C(=O)N1CCC[C@H]1C(=O)N[C@@H](CO)C(=O)N[C@@H](CO)C(=O)N[C@H](C(=O)N[C@@H](CC(N)=O)C(=O)N[C@H](C(=O)NCC(=O)N[C@@H](CO)C(=O)N[C@@H](CCC(=O)O)C(=O)N[C@H](C(=O)N[C@@H](Cc1ccc(O)cc1)C(N)=O)[C@@H](C)O)C(C)C)[C@@H](C)O` [Example 30] ({C20 diacid-γGlu}-KCNTATCATQRLAHFLRHSSPNFGAIPSSTNVGSETY-NH2; disulfide 2-7), the solubility at 18 h in data set [1] (setting [4]), in data set [1] (setting [5]), in data set [1] (setting [6]), in data set [1] (setting [7]), in data set [1] (setting [8]) and in data set [1] (setting [9]) was at least 200 µM throughout. Besides, the solubility at 18 h in data set [1] (setting [10]) and in data set [1] (setting [11]) was at least 200 µM each time. For the same molecule, the IC50 in data set [2] (Table 7) turned out to be 3.14 nM. Also, the “Ratio rCT/rAmylin binding” value in data set [2] (setting [12]), in data set [2] (setting [13]) and in data set [2] (setting [14]) was 36.1 each time. Further, the “ThT pH 4.0 lag time (h)” value in data set [3] worked out at 16 h.
